In ChEMBL document CHEMBL6078673, “Synthesis and anti-tumor activity of menthylamine derivatives: Focusing on the potent inhibitory effect of compound W8 on glioma growth” (Bioorg Med Chem, 2025):
In brackets after ≈: the same amount, converted by molar mass. Activity calls are given as the source filed them. No cut-off for these calls is given here.

How the values were obtained:
U-87 MG [1] = experiment: Antiproliferative activity against human U87 cells assessed as inhibition of cell growth incubated for 24 hrs by CCK-8 assay; type: functional, cell-based, U-87MG ATCC
MCF7 = experiment: Antiproliferative activity against human MCF7 cells assessed as inhibition of cell growth incubated for 24 hrs by CCK-8 assay; type: functional, cell-based; settings: MCF7, 24 h
HCT-116 = experiment: Antiproliferative activity against human HCT-116 cells assessed as inhibition of cell growth incubated for 24 hrs by CCK-8 assay; type: functional, cell-based; settings: HCT-116, 24 h
KYSE-150 cell line = experiment: Antiproliferative activity against human KYSE-150 cell line assessed as inhibition of cell growth incubated for 24 hrs by CCK-8 assay; type: functional, cell-based; settings: KYSE-150, 24 h
[2] = Kinetic solubility in PBS at pH 7.4 incubated under shaking condition for 24 hrs by LC-MS/MS analysis; type: physicochemical; settings: read-out: Kinetic_solubility
[3] = Apparent permeability across apical to basolateral side in human Caco-2 cells at 2 uM incubated for 2 hrs by LC-MS/MS analysis; type: ADME, cell-based; settings: for Papp A→B at 2 h, 2 µM: Caco-2; for Papp: caco-2, 2 h, 2 µM
[4] = Apparent permeability across basolateral to apical side in human Caco-2 cells at 2 uM incubated for 2 hrs by LC-MS/MS analysis; type: ADME, cell-based; settings: for Papp B→A at 2 h, 2 µM: Caco-2; for Papp: caco-2, 2 h, 2 µM
[5] = Efflux ratio of apparent permeability from basolateral to apical side over apical to basolateral side in human Caco-2 cells at 2 uM incubated for 2 hr by LC-MS/MS analysis; type: ADME, cell-based; settings: for efflux ratio at 2 h, 2 µM: Caco-2; for Ratio: caco-2, 2 h, 2 µM
[6] = Metabolic stability in liver microsomes (unknown origin) assessed as half life incubated for 60 mins by LC-MS/MS analysis; type: ADME, Microsome
[7] = Metabolic stability in liver microsomes (unknown origin) assessed as compound remaining incubated for 60 mins by LC-MS/MS analysis; type: ADME, Microsome; settings: read-out: Stability
U-87 MG [8] = experiment: Induction of apoptosis in human U87 cells at 80 uM incubated for 24 hrs by Annexin V-FITC/PI staining based flow cytometry; type: functional
U-87 MG [9] = experiment: Induction of apoptosis in human U87 cells assessed as increase in number of apoptotic cells at 80 uM incubated for 24 hrs by Annexin V-FITC/PI staining based flow cytometry; type: functional, cell-based; settings: U-87MG ATCC
U-87 MG [10] = experiment: Induction of cell cycle arrest in human U87 cells assessed as decrease in number of cells at G1 phase at 80 uM incubated for 24 hrs by RNase/PI staining based flow cytometry; type: functional; settings: U-87MG ATCC
U-87 MG [11] = experiment: Induction of cell cycle arrest in human U87 cells assessed as decrease in number of cells at G2 phase at 80 uM incubated for 24 hrs by RNase/PI staining based flow cytometry; type: functional; settings: U-87MG ATCC
U-87 MG [12] = experiment: Induction of cell cycle arrest in human U87 cells assessed as increase in number of cells at S phase at 80 uM incubated for 24 hrs by RNase/PI staining based flow cytometry; type: functional; settings: U-87MG ATCC
U-87 MG [13] = experiment: Inhibition of cell migration in human U87 cells at 80 uM incubated for 48 hrs by scratch assay; type: functional, cell-based; settings: U-87MG ATCC
U-87 MG [14] = experiment: Induction of cell cycle arrest in human U87 cells assessed as increase in number of cells at G1 phase at 80 uM incubated for 24 hrs by RNase/PI staining based flow cytometry; type: functional; settings: U-87MG ATCC
U-87 MG [15] = experiment: Induction of cell cycle arrest in human U87 cells assessed as increase in number of cells at G2 phase at 80 uM incubated for 24 hrs by RNase/PI staining based flow cytometry; type: functional; settings: U-87MG ATCC
U-87 MG [16] = experiment: Induction of cell cycle arrest in human U87 cells assessed as decrease in number of cells at S phase at 80 uM incubated for 24 hrs by RNase/PI staining based flow cytometry; type: functional; settings: U-87MG ATCC

CC(C)[C@@H]1CC[C@@H](C)C[C@@H]1OC(=O)c1ccc([N+](=O)[O-])cc1
IC50 (U-87 MG [1]): 0.109 mM | IC50 (MCF7): 2.67 mM | IC50 (HCT-116): 0.787 mM | IC50 (KYSE-150 cell line): 3.51 mM | solubility kinetic at 24 h [2]: 0.031 µM (≈ 0.00947 µg/mL) | Papp A→B at 2 h, 2 µM [3]: 24.4 ×10⁻⁶ cm/s | Papp B→A at 2 h, 2 µM [4]: 12.1 ×10⁻⁶ cm/s | efflux ratio at 2 h, 2 µM [5]: 0.51 | half-life [6]: 25 min | remaining at 1 h [7]: 33.3% | Activity (U-87 MG [8]; U-87MG ATCC): Active | Activity (U-87 MG [9]): Active; Significantly Increased Activity Observed | Activity (U-87 MG [10]): inactive | Activity (U-87 MG [11]): inactive | Activity (U-87 MG [12]): inactive | inhibition (U-87 MG [13]): Active

C[C@]12CC[C@H]3[C@@H](CCC4=CC(=O)CC[C@@]43C)[C@@H]1CC[C@@H]2O [TESTOSTERONE]
remaining at 1 h [7]: 91%

CC(C)[C@H]1CC[C@H](C)C[C@@H]1O [RACEMENTHOL]
IC50 (U-87 MG [1]): 0.679 mM | IC50 (MCF7): 3.68 mM | IC50 (HCT-116): 1.14 mM | IC50 (KYSE-150 cell line): 3.65 mM | Activity (U-87 MG [9]): inactive | Activity (U-87 MG [10]): inactive | Activity (U-87 MG [11]): inactive | Activity (U-87 MG [12]): inactive | inhibition (U-87 MG [13]): Active

C[C@H]1O[C@@H](O[C@H]2[C@@H](O)C[C@H](O[C@H]3[C@@H](O)C[C@H](O[C@H]4CC[C@@]5(C)[C@H](CC[C@@H]6[C@@H]5C[C@@H](O)[C@]5(C)[C@@H](C7=CC(=O)OC7)CC[C@]65O)C4)O[C@@H]3C)O[C@@H]2C)C[C@H](O)[C@@H]1O [DIGOXIN]
Papp A→B at 2 h, 2 µM [3]: 0.15 ×10⁻⁶ cm/s | Papp B→A at 2 h, 2 µM [4]: 18.6 ×10⁻⁶ cm/s | efflux ratio at 2 h, 2 µM [5]: 127

Cn1nnc2c(C(N)=O)ncn2c1=O [TEMOZOLOMIDE]
IC50 (U-87 MG [1]): 1.5 mM

CC(C)[C@H]1CC[C@@H](C)C[C@H]1N
IC50 (U-87 MG [1]): 0.224 mM | IC50 (MCF7): 3.51 mM | IC50 (HCT-116): 0.848 mM | IC50 (KYSE-150 cell line): 4.24 mM | solubility kinetic at 24 h [2]: 147 µM (≈ 22.8 µg/mL) | Papp A→B at 2 h, 2 µM [3]: 41.8 ×10⁻⁶ cm/s | Papp B→A at 2 h, 2 µM [4]: 24.7 ×10⁻⁶ cm/s | efflux ratio at 2 h, 2 µM [5]: 0.59 | half-life [6]: > 145 min | remaining at 1 h [7]: 79.4% | Activity (U-87 MG [8]): 90% | Activity (U-87 MG [9]): Active; Significantly Increased Activity Observed | Activity (U-87 MG [10]): Active | Activity (U-87 MG [11]): Active | Activity (U-87 MG [12]): Active | inhibition (U-87 MG [13]): Active

CC(C)[C@H]1CC[C@H](C)C[C@H]1N
IC50 (U-87 MG [1]): 0.317 mM | IC50 (MCF7): > 1.26 mM | IC50 (HCT-116): 0.63 mM | IC50 (KYSE-150 cell line): > 3.28 mM | solubility kinetic at 24 h [2]: 0.625 µM (≈ 0.0971 µg/mL) | Papp [3]: 23.47 10^-6 cm/s | Papp [4]: 22.23 10^-6 cm/s | Ratio [5]: 0.55 | half-life [6]: > 145 min | remaining at 1 h [7]: 81.8% | Activity (U-87 MG [8]; U-87MG ATCC): Active | Activity (U-87 MG [9]): Active; Significantly Increased Activity Observed | Activity (U-87 MG [14]): Active | Activity (U-87 MG [15]): Active | Activity (U-87 MG [16]): Active | inhibition (U-87 MG [13]): Active

CC(C)[C@@H]1CC[C@@H](C)C[C@H]1OC(=O)c1ccc([N+](=O)[O-])cc1
IC50 (U-87 MG [1]): 0.0927 mM | IC50 (MCF7): 0.907 mM | IC50 (HCT-116): 0.649 mM | IC50 (KYSE-150 cell line): > 3.13 mM | solubility kinetic at 24 h [2]: 0.61 µM (≈ 0.186 µg/mL) | Papp A→B at 2 h, 2 µM [3]: 24 ×10⁻⁶ cm/s | Papp B→A at 2 h, 2 µM [4]: 11.2 ×10⁻⁶ cm/s | efflux ratio at 2 h, 2 µM [5]: 0.48 | half-life [6]: 25.2 min | remaining at 1 h [7]: 32.6% | Activity (U-87 MG [8]; U-87MG ATCC): Active | Activity (U-87 MG [9]): Active; Significantly Increased Activity Observed | Activity (U-87 MG [10]): inactive | Activity (U-87 MG [11]): inactive | Activity (U-87 MG [12]): inactive | inhibition (U-87 MG [13]): Active

CC(C)[C@H]1CC[C@H](C)C[C@H]1N1C(=O)c2ccccc2C1=O
IC50 (U-87 MG [1]): 0.0653 mM | IC50 (MCF7): 1.49 mM | IC50 (HCT-116): 0.0572 mM | IC50 (KYSE-150 cell line): > 0.972 mM | solubility kinetic at 24 h [2]: 0.03 µM (≈ 0.00856 µg/mL) | Papp A→B at 2 h, 2 µM [3]: 25.7 ×10⁻⁶ cm/s | Papp B→A at 2 h, 2 µM [4]: 12.6 ×10⁻⁶ cm/s | efflux ratio at 2 h, 2 µM [5]: 0.52 | half-life [6]: > 145 min | remaining at 1 h [7]: 80.4% | Activity (U-87 MG [8]; U-87MG ATCC): Active | Activity (U-87 MG [9]): Active; Significantly Increased Activity Observed | Activity (U-87 MG [14]): Active | Activity (U-87 MG [15]): Active | Activity (U-87 MG [16]): Active | inhibition (U-87 MG [13]): Active

COCCc1ccc(OCC(O)CNC(C)C)cc1 (centres undefined) [METOPROLOL]
Papp A→B at 2 h, 2 µM [3]: 25.1 ×10⁻⁶ cm/s

CC(C)(C)NCC(O)COc1cccc2c1CC(O)C(O)C2 (centres undefined) [NADOLOL]
Papp A→B at 2 h, 2 µM [3]: 0.04 ×10⁻⁶ cm/s

O=C(O)Cc1ccccc1Nc1c(Cl)cccc1Cl [DICLOFENAC]
half-life [6]: 5.32 min | remaining at 1 h [7]: 97.8%

CC(C)[C@H]1CC[C@@H](C)C[C@@H]1N
IC50 (U-87 MG [1]): 1.74 mM | IC50 (MCF7): > 6.45 mM | IC50 (HCT-116): > 0.318 mM | IC50 (KYSE-150 cell line): > 6.45 mM | solubility kinetic at 24 h [2]: 150 µM (≈ 23.3 µg/mL) | Papp [3]: 40.16 10^-6 cm/s | Papp [4]: 23.22 10^-6 cm/s | Ratio [5]: 0.5 | half-life [6]: > 145 min | remaining at 1 h [7]: 75.4% | Activity (U-87 MG [8]; U-87MG ATCC): Active | Activity (U-87 MG [9]): Active; Significantly Increased Activity Observed | Activity (U-87 MG [14]): Active | Activity (U-87 MG [15]): Active | Activity (U-87 MG [16]): Active | inhibition (U-87 MG [13]): Active

CC(C)[C@@H]1CC[C@@H](C)C[C@H]1O [LEVOMENTHOL]
IC50 (U-87 MG [1]): 0.198 mM | IC50 (MCF7): 1.25 mM | IC50 (HCT-116): 0.771 mM | IC50 (KYSE-150 cell line): 0.784 mM | Activity (U-87 MG [9]): inactive | Activity (U-87 MG [10]): inactive | Activity (U-87 MG [11]): inactive | Activity (U-87 MG [12]): inactive | inhibition (U-87 MG [13]): Active

CC(C)[C@H]1CC[C@H](C)C[C@@H]1N
IC50 (U-87 MG [1]): 3.21 mM | IC50 (MCF7): 6.45 mM | IC50 (HCT-116): 6.45 mM | IC50 (KYSE-150 cell line): 6.45 mM | solubility kinetic at 24 h [2]: 146 µM (≈ 22.6 µg/mL) | Papp A→B at 2 h, 2 µM [3]: 46 ×10⁻⁶ cm/s | Papp B→A at 2 h, 2 µM [4]: 23.5 ×10⁻⁶ cm/s | efflux ratio at 2 h, 2 µM [5]: 0.53 | half-life [6]: > 145 min | remaining at 1 h [7]: 79.4% | Activity (U-87 MG [8]): 90% | Activity (U-87 MG [9]): Active; Significantly Increased Activity Observed | Activity (U-87 MG [10]): inactive | Activity (U-87 MG [11]): inactive | Activity (U-87 MG [12]): inactive | inhibition (U-87 MG [13]): Active
